Data on 32 compounds can be found in patent US5789434A, “Derivatives of substituted 4-biarylbutyric acid as matrix metalloprotease inhibitors” (priority 1995, dated 1998).

pIC50: −log10 of the molar value.

The target of one experiment is T1, MMP-3 (Homo sapiens, UniProt P08254).
T1 construct: Truncated Prostromelysin-257 was expressed in a soluble form in E.coli; made in house; host or cells: E. coli
Kind of experiment: Primary Thiopeptilide MMP-3 Inhibition Assay. It counts as biochemical. As to conditions: for pIC50: pH 6.5, 13 nM stromelysin, x (n) = average of n determinations, read-out: MMP-3 Thiopep. IC50; for inhibition at 5 µM: read-out: MMP-3 Thiopep. % inhibition.

Another experiment deals with T2, MMP-9 (Homo sapiens, UniProt P14780).
T2 construct: from tissue; host or cells: human polymorphonuclear leukocytes (PMN) from whole blood (New York Blood Center), PMA-stimulated supernatant
T2 sequence (P14780 107-707 limits assumed): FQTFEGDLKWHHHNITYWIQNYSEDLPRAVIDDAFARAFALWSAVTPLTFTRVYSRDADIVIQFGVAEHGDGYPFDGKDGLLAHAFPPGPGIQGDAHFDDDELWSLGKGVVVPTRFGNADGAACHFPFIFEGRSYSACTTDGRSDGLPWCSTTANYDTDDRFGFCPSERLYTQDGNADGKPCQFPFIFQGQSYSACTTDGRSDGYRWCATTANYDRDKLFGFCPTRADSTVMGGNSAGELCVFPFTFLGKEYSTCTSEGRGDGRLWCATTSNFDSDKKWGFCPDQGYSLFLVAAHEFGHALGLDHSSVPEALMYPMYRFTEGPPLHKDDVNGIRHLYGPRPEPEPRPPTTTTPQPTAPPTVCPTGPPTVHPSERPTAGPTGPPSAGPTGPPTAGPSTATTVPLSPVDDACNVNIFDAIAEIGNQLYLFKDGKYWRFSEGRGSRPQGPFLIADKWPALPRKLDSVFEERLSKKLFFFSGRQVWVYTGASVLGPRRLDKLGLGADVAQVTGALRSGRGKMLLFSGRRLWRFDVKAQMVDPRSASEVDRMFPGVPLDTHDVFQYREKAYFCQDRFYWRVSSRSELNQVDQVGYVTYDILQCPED
Kind of experiment: Thiopeptilide MMP-9 Inhibition Assay. Format: biochemical. The note with it: for pIC50: pH 6.5, x (n) = average of n determinations, read-out: MMP-9: Thiopep. IC50; for inhibition at 5 µM: read-out: MMP-9: Thiopep. % inhibition.

T1 sequence (P08254 100-274 limits assumed): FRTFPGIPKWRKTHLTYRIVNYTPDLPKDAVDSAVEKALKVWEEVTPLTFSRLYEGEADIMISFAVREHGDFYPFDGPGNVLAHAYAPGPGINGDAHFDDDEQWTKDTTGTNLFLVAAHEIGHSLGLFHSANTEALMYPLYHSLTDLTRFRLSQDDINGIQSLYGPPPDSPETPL
Description for MMP-3: Enzyme: recombinant stromelysin expressed in E.coli and purified as described above. […] The protocols for the assay of compounds as stromelysin inhibitors was the same as that used for MMP-9 except that the assay buffer was 50 mM MES, pH 6.5 containing 150 mM NaCl, 10 mM CaCl2, 0.005% Brij, and 1% DMSO.

As usually defined, the pIC50 is the IC50 on a negative log10 scale, so that one unit is a factor of ten. On to `O=C(O)CC1(CC(=O)c2ccc(-c3ccc(Cl)cc3)cc2)CCCC1` [Example 336, Cyclopentaneactic acid, 1-[2-(4'-chloro[1,1'-biphenyl]-4-yl)-2-oxoethyl]-], for which the pIC50 was 5.85 on MMP-3 and 6.22 on MMP-9.

Turning to `O=C(CC(SCc1ccccc1)C(=O)O)c1ccc(-c2ccc(Cl)cc2)cc1` (stereo not drawn) [Example 252, [1,1'-Biphenyl]-4-butanoic acid, 4'-chloro-γ-oxo-α-[(phenylmethyl)thio]-], the figures for the pIC50 at MMP-3 and at MMP-9 were 6.53 and 5.54, respectively.

As for `O=C(CC(CCOCc1ccccc1)C(=O)O)c1ccc(-c2ccc(Cl)cc2)cc1` (stereo not drawn) [Example 190, [1,1'-Biphenyl]-4-butanoic acid, 4'-chloro-γ-oxo-α-[2-(phenylmethoxy)ethyl]-], the pIC50 is 6.64 on MMP-3 and 6.67 at MMP-9.

As a reminder, the inhibition is the share of the control response that was lost under treatment. With `NCc1ccc(-c2ccc(C(=O)CC(CCCc3ccccc3)C(=O)O)cc2)cc1` (stereo not drawn) [Example 59, [1,1'-Biphenyl]-4-butanoic acid, 4'-(aminomethyl)γ-oxo-α-(3-phenylpropyl)-], the inhibition at 5 µM on MMP-3 came out at 33%. For the same compound, the pIC50 at MMP-9 was 5.70.

For `O=C(CC(CSc1cccc2cccnc12)C(=O)O)c1ccc(-c2ccc(Cl)cc2)cc1` (stereo not drawn) [Example 241, [1,1'-Biphenyl]-4-butanoic acid, 4'-chloro-γ-oxo-α-[(8-quinolinylthio)methyl]-], the pIC50 at MMP-3 was 6.71; at MMP-9, 6.47.

As for `C=C(CC(=O)c1ccc(-c2ccccc2Cl)cc1)C(=O)O` [Example 24, [1,1'-Biphenyl]-4-butanoic acid, 2'-chloro-α-methylene-γ-oxo-, reference compound], the inhibition at 5 µM on MMP-3 worked out at 40%; at MMP-9, 0%.

On to `O=C(CC(COCc1ccccc1)C(=O)O)c1ccc(-c2ccc(Cl)cc2)cc1` (stereo not drawn) [Example 192, [1,1'-Biphenyl]-4-butanoic acid, 4'-chloro-γ-oxo-α-[(phenylmethoxy)methyl]-], for which the pIC50 at MMP-3 is 6.85; at MMP-9, 6.29.

`COCCOCC(CC(=O)c1ccc(-c2ccc(Cl)cc2)cc1)C(=O)O` (stereo not shown) [Example 191, [1,1'-Biphenyl]-4-butanoic acid, 4'-chloro-=-[(2-methoxyethoxy)methyl]-γ-oxo-]: at MMP-3, the pIC50 is 6.48. For the same compound, at MMP-9, the inhibition at 5 µM was 62%.

In the case of `CCCOc1ccc(-c2ccc(C(=O)CC(CCCc3ccccc3)C(=O)O)cc2)cc1` (stereo not drawn) [Example 84, [1,1'-Biphenyl]-4-butanoic acid, γ-oxo-α-(3-phenylpropyl)-4'-propoxy-], the negative logarithm of the IC50 (pIC50) on MMP-3 was 6.82; on MMP-9, 7.00.

Turning to `CCc1ccc(SCC(CC(=O)c2ccc(-c3ccc(Cl)cc3)cc2)C(=O)O)cc1` (stereo not drawn) [Example 212, [1,1'-Biphenyl]-4-butanoic acid, 4'-chloro-α-[[(4-ethylphenyl)thio]methyl]-γ-oxo-], the pIC50 at MMP-3 was 6.19; on MMP-9, 6.41.

`COc1ccccc1SCC(CC(=O)c1ccc(-c2ccc(Cl)cc2)cc1)C(=O)O` (stereo not drawn) [Example 229, [1,1'-Biphenyl]-4-butanoic acid, 4'-chloro-α-[[(2-methoxyphenyl)thio]methyl]-γ-oxo-]: the negative logarithm of the IC50 (pIC50) on MMP-3 is 6.52; on MMP-9 it was 6.05.

As to `O=C(O)CCC1(C(=O)c2ccc(-c3ccc(Cl)cc3)cc2)CCCC1` [Example 340, Cyclopentanepropanoic acid, 1-[(4'-chloro[1,1'-biphenyl]-4-yl)carbonyl]-], the values for the inhibition at 5 µM at MMP-3 and on MMP-9 were 14% and 21%, respectively.

In the case of `O=C(O)CCC(=O)c1ccc(-c2ccc(F)cc2)cc1` [Example 8, [1,1'-Biphenyl]-4-butanoic acid, 4'-fluoro-γ-oxo-, reference compound], the results for the inhibition at 5 µM on MMP-3 and on MMP-9 were 26% and 0%, respectively.

Take `CC(C)(CCC(=O)c1ccc(-c2ccc(Cl)cc2)cc1)C(=O)O` [Example 337, [1,1'-Biphenyl]-4-pentanoic acid, 4'-chloro-α,α-dimethyl-δ-oxo-]: the inhibition at 5 µM on MMP-3 amounted to 20%; on MMP-9 it was 2%.

`O=C(O)CC1(CC(=O)c2ccc(-c3ccc(Cl)cc3)cc2)CCCCC1` [Example 339, Cyclohexaneacetic acid, 1-[2-(4'-chloro[1,1'-biphenyl]-4-yl)-2-oxoethyl]-]: the pIC50 on MMP-3 was 5.77; at MMP-9, 5.82.

As for `CC(C)(CC(=O)O)CC(=O)c1ccc(-c2ccc(Cl)cc2)cc1` [Example 334, [1,1'-Biphenyl]-4-pentanoic acid, 4'-chloro-β,β-dimethyl-δ-oxo-], on MMP-3, the inhibition at 5 µM is 42%. Moreover, the pIC50 on MMP-9 is 5.22.

Consider `O=C(CC(CSC(=O)c1ccccc1)C(=O)O)c1ccc(-c2ccc(Cl)cc2)cc1` (stereo not drawn) [Example 202, [1,1'-Biphenyl]-4-butanoic acid, α-[(benzoylthio)methyl]-4'-chloro-γ-oxo-], for which the pIC50 on MMP-3 was 6.60; on MMP-9, 6.30.

As to `Cc1ccc(CCCC(CC(=O)c2ccc(-c3ccc(Cl)cc3)cc2)C(=O)O)cc1` (stereo not drawn) [Example 184, [1,1'-Biphenyl]-4-butanoic acid, 4'-chloro-α[3-(4-methylphenyl)propyl]-γ-oxo-], the negative logarithm of the IC50 (pIC50) on MMP-3 was 6.55. Also, the inhibition at 5 µM on MMP-9 was found to be 41%.

On to `O=C(CCC(CCCc1ccccc1)C(=O)O)c1ccc(-c2ccc(Cl)cc2)cc1` (stereo not drawn) [Example 341, [1,1'-Biphenyl]-4-pentanoic acid, 4'-chloro-δ-oxo-α-(3-phenylpropyl)-], for which the pIC50 on MMP-3 is 5.62; at MMP-9 it was 5.42.

Turning to `COc1ccc(CCCC(CC(=O)c2ccc(-c3ccc(Cl)cc3)cc2)C(=O)O)cc1` (stereo not drawn) [Example 186, [1,1'-Biphenyl]-4-butanoic acid, 4'-chloro-α[3-(4-methoxyphenyl)propyl]-γ-oxo-], the figures for the pIC50 at MMP-3 and on MMP-9 were 6.77 and 6.42, respectively.

`CC1=C(C)C[C@@H](C(=O)c2ccc(-c3ccc(Cl)cc3)cc2)[C@H](C(=O)O)C1` (relative stereo) [Example 327, 3-Cyclohexene-1-carboxylic acid, 6-[(4'-chloro[1,1'-biphenyl]-4-yl)carbonyl]-3,4-dimethyl-, trans-]: at MMP-3, the inhibition at 5 µM came to 55%. Further, the pIC50 at MMP-9 was 4.92.

As to `O=C(O)[C@H]1[C@@H](Sc2ccc(F)cc2)CC[C@@H]1C(=O)c1ccc(-c2ccc(Cl)cc2)cc1` (relative stereo) [Example 303, Cyclopentanecarboxylic acid, 2-[(4'-chloro[1,1'-biphenyl]-4-yl)carbonyl]-5-[(4-fluorophenyl)thio]-, (1α,2β,5α)-], the pIC50 is 6.51 on MMP-3 and 5.85 on MMP-9.

For the compound `CCOc1ccc(-c2ccc(C(=O)CC(CCCc3ccccc3)C(=O)O)cc2)cc1` (stereo not drawn) [Example 75, [1,1'-Biphenyl]-4-butanoic acid, 4'-ethoxy-γ-oxo-α-(3-phenylpropyl)-], the pIC50 at MMP-3 was 7.11; at MMP-9 it was 7.09.

For `C=C(CC(O)c1ccc(-c2ccc(Cl)cc2)cc1)C(=O)O` (stereo not drawn) [Example 38, [1,1'-Biphenyl]-4-butanoic acid, 4'-chloro-γ-hydroxy-α-methylene-, reference compound], the pIC50 on MMP-3 was 5.00. For the same compound, at MMP-9, the inhibition at 5 µM is 10%.

Turning to `O=C(O)CCC(=O)c1ccc(-c2ccc(Br)cc2)cc1` [Example 7, [1,1'-Biphenyl]-4-butanoic acid, 4'-bromo-γ-oxo-, reference compound], the pIC50 was 6.16 on MMP-3 and 5.68 at MMP-9.

`O=C(c1ccc(-c2ccc(Cl)cc2)cc1)[C@H]1CCC[C@H]1C(=O)O` (relative stereo) [Example 288, Cyclopentanecarboxylic acid, 2-[(4'-chloro[1,1'-biphenyl]-4-yl)carbonyl]-, cis-]: the inhibition at 5 µM at MMP-3 was 40%; on MMP-9 it was 46%.

For `O=C(CC(CSc1cccc(Cl)c1)C(=O)O)c1ccc(-c2ccc(Cl)cc2)cc1` (stereo not drawn) [Example 242, [1,1'-Biphenyl]-4-butanoic acid, 4'-chloro-α-[[(3-chlorophenyl)thio]methyl]-γ-oxo-], the values for the pIC50 at MMP-3 and at MMP-9 were 6.31 and 5.89, respectively.

Regarding `O=C(CC(CCCN1C(=O)c2ccccc2C1=O)C(=O)O)c1ccc(-c2ccc(Cl)cc2)cc1` (stereo not drawn) [Example 262, 2H-Isoindole-2-pentanoic acid, α-[2-(4'-chloro[1,1'-biphenyl]-4-yl)-2-oxoethyl]-1,3-dihydro-1,3-dioxo-], the results for the pIC50 on MMP-3 and at MMP-9 were 7.02 and 7.12, respectively.

Turning to `CC(=O)Oc1ccc(-c2ccc(C(=O)CC(CCCc3ccccc3)C(=O)O)cc2)cc1` (stereo not drawn) [Example 67, [1,1'-Biphenyl]-4-butanoic acid, 4'-(acetyloxy)-γ-oxo-α-(3-phenylpropyl)-], the pIC50 on MMP-3 was 6.82; at MMP-9 it was 6.11.

Consider `CC(C)Oc1ccc(-c2ccc(C(=O)CC(CCCc3ccccc3)C(=O)O)cc2)cc1` (stereo not drawn) [Example 91, [1,1'-Biphenyl]-4-butanoic acid, 4'-(1-methylethoxy)-γ-oxo-α-(3-phenylpropyl)-], for which the pIC50 on MMP-3 was 6.76; at MMP-9 it was 6.15.

For the compound `CC(C)(C)C(=O)SCC(CC(=O)c1ccc(-c2ccc(Cl)cc2)cc1)C(=O)O` (single isomer, unassigned) [Example 195, [1,1'-Biphenyl]-4-butanoic acid, 4'-chloro-α-[[(2,2-dimethyl-1-oxopropyl)thio]methyl]-γ-oxo-], the results for the inhibition at 5 µM at MMP-3 and at MMP-9 were 31% and 20%, respectively.

On to `O=C(c1ccc(-c2ccc(Cl)cc2)cc1)[C@H]1CCCC[C@H]1C(=O)O` (relative stereo) [Example 286, Cyclohexanecarboxylic acid, 2-[(4'-chloro[1,1'-biphenyl]-4-yl)carbonyl]-, trans-], for which the values for the inhibition at 5 µM at MMP-3 and on MMP-9 were 19% and 0%, respectively.
